Laboratory results from PubChem BioAssay (NCI).
Several values for one entry are separate records, joined by “and”; a condition that tells them apart may be missing. Identical values can stand only once.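 How tested: cells in 96-well plates exposed to compound for 48 hours at five concentrations. GI50 is the concentration that inhibits growth by half. TGI: concentration producing complete growth inhibition.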

How the values were obtained:
Experiment in all cases: NCI anticancer screen, dose series, 48 h
[1] = tested on: MOLT-4 leukemia
[2] = tested on: NCI-H226 lung
[3] = tested on: SF-295 CNS
[4] = tested on: MDA-MB-231 breast
[5] = tested on: LOX IMVI melanoma
[6] = tested on: MDA-MB-435
[7] = tested on: SR leukemia
[8] = tested on: SNB-19 CNS

Compound | GI50 [1] | TGI [1] | GI50 [2] | TGI [2] | GI50 [3] | TGI [3] | GI50 [4] | TGI [4] | GI50 [5] | TGI [5] | GI50 [6] | TGI [6] | GI50 [7] | TGI [7] | GI50 [8] | TGI [8]
COc1ccc(Cn2cnc3cc(C(=O)Nc4cccc5ccccc45)ccc32)c(OC)c1 | 0.0621 µM | > 100 µM | 0.111 µM | > 100 µM | 0.0341 µM | > 100 µM | 0.0894 µM | 4.31 µM | 0.0611 µM | > 100 µM | 0.0173 µM | 0.0358 µM | 0.0228 µM | > 100 µM | 0.0465 µM | > 100 µM
c1ccc2c(-c3nc4ccccc4[nH]3)cccc2c1 | 2.9 µM | 83.8 µM | – | – | 2.98 µM | 29.1 µM | 9.65 µM | > 100 µM | 7.11 µM | > 100 µM | 0.309 µM | 1.44 µM | 1.42 µM | 21.4 µM | 4.26 µM | 40.4 µM
COc1cc(OC)c2cc(C(=O)O)c(=O)oc2c1 | > 100 µM | > 100 µM | > 100 µM | > 100 µM | 42.2 µM | > 100 µM | > 100 µM | > 100 µM | > 100 µM | > 100 µM | > 100 µM | > 100 µM | > 100 µM | > 100 µM | > 100 µM | > 100 µM
O=C(Nc1ccc(Cl)cc1)c1ccc([N+](=O)[O-])o1 | 7.19 µM | > 100 µM | 1.93 µM | 4.6 µM | 3.29 µM | 12.3 µM | 6.79 µM | 47.2 µM | 1.34 µM | 2.97 µM | 2.25 µM | 6.2 µM | 0.553 µM | 16.5 µM | 2.6 µM | 10.6 µM
O=C1/C(=C/c2ccc(Cl)cc2)CN(Cc2cn(CCNc3ccnc4cc(Cl)ccc34)nn2)C/C1=C\c1ccc(Cl)cc1 | 0.499 µM | > 100 µM | 0.84 µM | 2.69 µM | 0.222 µM | 0.541 µM | 0.293 µM | 0.966 µM | 0.189 µM | 0.35 µM | 0.326 µM | 1.08 µM | 0.245 µM | 0.815 µM | 0.319 µM | 1.27 µM
Oc1ccccc1Nc1nc2ccccc2c2occc12 | – | – | – | – | 3.71 µM | 16.1 µM | 10.1 µM | 22.3 µM | 2.43 µM | 9.39 µM | 9.25 µM | 21.2 µM | 14.8 µM | > 100 µM | 7.22 µM | 20.3 µM
Nc1nc(Cl)c(N=Nc2ccc(Cl)cc2)c(NCC2(CO)CC(OCc3ccccc3)C2)n1 (stereo not drawn) | 3.39 µM and 9.61 µM and 3.56 µM | 38.6 µM and > 100 µM and > 48.4 µM | 6.92 µM and 18.9 µM and 6.68 µM | 28.9 µM and > 100 µM and 24.9 µM | 22.2 µM and 45 µM and 13.4 µM | 99.5 µM and > 100 µM and 30.8 µM | – | – | 2.04 µM and 18.1 µM and 2.72 µM | 20.7 µM and > 100 µM and 11.3 µM | – | 14.2 µM and > 100 µM and 59.2 µM | 2.95 µM and 6.33 µM and 3.1 µM | – | 26.7 µM and > 100 µM and 18.3 µM | > 100 µM and 47.6 µM
Cc1[nH]n(-c2ccc(S(=O)(=O)O)cc2)c(=O)c1N=Nc1ccccc1 | – | > 100 µM | – | – | – | > 100 µM | – | > 100 µM | – | > 100 µM | – | > 100 µM | – | > 100 µM | – | > 100 µM
CN1C(=O)c2cc([N+](=O)[O-])ccc2[C@H]2C(=O)c3cc4c(cc3[C@H]21)OCO4 | 0.145 µM | > 100 µM | – | – | < 0.01 µM | 1.01 µM | 0.36 µM | 4.71 µM | 0.0161 µM | 0.155 µM | 0.167 µM | 2.72 µM | – | – | 0.22 µM | > 28.2 µM
C/C1=C\CC[C@@]2(C)O[C@@H]2C[C@@H]2[C@H](C/C(C)=C/CC1)OC(=O)C21CCN=N1 (stereo partly drawn) | > 100 µM | 75 µM and > 100 µM | – | > 100 µM | > 100 µM | 75 µM and > 100 µM | > 100 µM | > 100 µM | – | 75 µM | > 100 µM | > 100 µM | – | – | > 100 µM | > 100 µM
CCN(CC)CCCNc1nc2ccccc2c2c(=O)c3cc(Cl)ccc3sc12 | 2.22 µM | 4.92 µM | 10.7 µM | 25.1 µM | 7.96 µM | 21.9 µM | 1.45 µM | 3.27 µM | 1.65 µM | 3.08 µM | 1.89 µM | 3.65 µM | 3.75 µM | > 100 µM | 6.81 µM | 20.4 µM
COc1cc(/C=C/C(=O)C(C(=O)/C=C/c2ccc(OC(=O)CCNc3nnc(C)s3)c(OC)c2)C(=O)CCNc2nnc(C)s2)ccc1OC(=O)CCNc1nnc(C)s1 | 1.64 µM | 3.89 µM | 2.64 µM | 8.12 µM | 6.8 µM | 20.2 µM | 2.23 µM | 7.4 µM | 1.89 µM | 3.84 µM | 2.06 µM | 6.98 µM | 1.18 µM | 3.31 µM | 4.79 µM | 18.3 µM
O=c1oc2ccc(F)cc2c(=O)n1-c1ccc(Cl)cc1F | 2 µM | 5.27 µM | 1.22 µM | 4.91 µM | 1.82 µM | 3.66 µM | 0.675 µM | 6.33 µM | 0.527 µM | 6.97 µM | 0.674 µM | 5.48 µM | 0.619 µM | > 39.1 µM | 0.541 µM | > 100 µM
CCOCC(=O)N[C@H]1CCc2cc(OC(=O)COCC)c(OC)c(OC)c2-c2ccc(SC)c(=O)cc21 | 0.034 µM | > 100 µM | 0.0264 µM | 0.0917 µM and 0.0893 µM | 0.0198 µM | – | 0.036 µM | – | – | > 100 µM | – | 0.00412 µM | – | – | 0.0283 µM | > 100 µM
CO/N=C(\COc1ccc2c(c1)oc(=O)c1cc(OC)ccc12)c1ccc(F)cc1 | 36.6 µM | > 100 µM | 38.1 µM | > 100 µM | 24.1 µM | 87.5 µM | 15.8 µM | 42.8 µM | 26 µM | 72.9 µM | 66.1 µM | > 100 µM | – | – | 30.4 µM | > 100 µM
Oc1ccc2ccccc2c1C(c1ccc(Cl)cc1)c1c(O)ccc2ccccc12 | – | 17.5 µM | – | – | – | 12.7 µM | – | 9.24 µM | – | 8.11 µM | – | 9.49 µM | – | > 25.7 µM | – | 19 µM
O=C(Nc1cccc([N+](=O)[O-])c1)c1ccc2ccccc2c1O | 3.4 µM | > 46.5 µM | 7.57 µM | > 100 µM | 3.47 µM | > 82.8 µM | 22.2 µM | > 81.9 µM | 9.94 µM | > 100 µM | 3.47 µM | > 100 µM | 3.94 µM | > 29.1 µM | 4.05 µM | > 85.4 µM
